The text below walks through data of patent publication US9573911B2, “Diphosphate mimetics and uses thereof” (President and Fellows of Harvard College, priority 2011, dated 2017).

In this assay the target is T1, OGT (Homo sapiens, UniProt O15294).
T1 construct: hOGT4.5 construct (spanning residues 313-1031 based on the numbering of the full length human protein); made in house
T1 sequence (O15294 313-1031 isoform O15294-3): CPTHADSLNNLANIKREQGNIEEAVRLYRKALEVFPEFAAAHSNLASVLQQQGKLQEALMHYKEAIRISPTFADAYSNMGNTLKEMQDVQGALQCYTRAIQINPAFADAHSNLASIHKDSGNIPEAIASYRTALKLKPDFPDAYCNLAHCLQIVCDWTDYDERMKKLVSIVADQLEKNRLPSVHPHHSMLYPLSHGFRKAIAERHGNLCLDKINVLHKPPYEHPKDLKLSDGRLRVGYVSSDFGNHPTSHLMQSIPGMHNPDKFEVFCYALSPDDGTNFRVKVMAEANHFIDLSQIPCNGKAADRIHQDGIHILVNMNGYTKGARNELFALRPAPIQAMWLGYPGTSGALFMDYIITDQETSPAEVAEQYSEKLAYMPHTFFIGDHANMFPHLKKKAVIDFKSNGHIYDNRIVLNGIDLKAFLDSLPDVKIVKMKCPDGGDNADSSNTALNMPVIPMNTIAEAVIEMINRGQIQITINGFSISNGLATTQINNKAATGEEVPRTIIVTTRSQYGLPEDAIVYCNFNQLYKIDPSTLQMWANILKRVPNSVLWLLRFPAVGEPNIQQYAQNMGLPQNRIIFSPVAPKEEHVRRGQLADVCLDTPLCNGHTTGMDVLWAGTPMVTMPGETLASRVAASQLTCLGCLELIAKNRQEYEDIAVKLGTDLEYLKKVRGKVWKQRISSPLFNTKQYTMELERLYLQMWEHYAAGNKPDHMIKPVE
Kind of assay: Western blot of BZX inhibitor treated cell lysates (O-GlcNAcylation by added OGT). The settings on record: MCF-10A ErbB2 cell lysates; OGT 2 μM, UDP-GlcNAc 1 mM, BZX inhibitors 200 μM. Type of assay: biochemical. The procedure:
[…] ErbB2 cells were maintained in DMEM/F12 (Invitrogen) supplemented with 5% horse serum (Invitrogen), 20 ng/ml EGF (Peprotech), 10 μg/ml insulin (Sigma), 100 ng/ml cholera toxin (Sigma), […] hydrocortisone (Sigma), 50 U/ml penicillin, and 50 μg/ml streptomycin (Invitrogen) to reach 70% confluence. The cells were then grown for another 9 hours in glucose starvation medium (DMEM-no glucose (Invitrogen) supplemented with 1% horse serum, 50 U/ml penicillin and 50 μg/ml streptomycin) before harvest. The cell lysates, prepared as described above, were divided into four tubes with each tube containing the same amount of protein. Nothing was added to tube I; OGT (2 μM) and DMSO (1%) were added into tube II; OGT (2 μM) and (2) (200 μM) were added to tube III; OGT (2 μM) and 1 (200 μM) were added to tube IV. The four samples were incubated at room temperature for 30 min before adding UDP-GlcNAc (1 mM) and incubated for another 2 hours. After incubation, all samples were analyzed with SDS-PAGE and a Western blot was carried out using the anti-O-GlcNAc antibody as described above.
(In western blotting, separated proteins are transferred to a membrane and probed.)

Take `COc1ccc(OC(=O)n2c(=O)oc3cc(C(C)=O)ccc32)cc1` [Compound 2]: the “inhibition of OGT activity (O-GlcNAcylation) in cell lysates” value is listed as “more potent inhibitor of OGT activity than compound (1)”.
